Source: patent US5101059A, “Amino acid protecting groups” (Research Corporation Technologies, Inc., priority 1989, dated 1992)
One block for each molecule: values may come before it.

Experiments:
Type in all cases: physicochemical
[1] = Protolysis of BTS-Fmoc-PCA in trifluoroacetic acid; details: TFA 10.7 eq., CH2Cl2, room temperature, 12 hours
Procedure: 4. Protolysis of 2,7-Bis(trimethylsilyl)-9-fluoroenylmethyl p-Chlorocarbanilate in Trifluoroacetic Acid: To a solution of 0.3 g of BTS-Fmoc-PCA in 8 mL of CH2 Cl2 was added dropwise a solution of 0.5 mL (10.7 eq.) of trifluoroacetic acid in 3.0 mL of methylene chloride over a period of 10 minutes. The mixture was stirred at room temperature for 12 hours, washed with water (2×10 mL), and neutralized with sat'd NaHCO3 (2×10 mL). […] Recrystallization from EtOAc--Skelly B (2:1) gave 0.16 g (75.3%) of the pure urethane as colorless needles, m.p. 184°-185° C., identified by mixture melting point, and IR and NMR spectral comparisons with an authentic sample.

[2] = Stability of substituted Fmoc-PCA in acetic acid; details: glacial acetic acid 10 eq., CH2Cl2, room temperature, 48 hours
Procedure: 2. […] The mixture was stirred at room temperature for 48 hours. […] The mixture was washed with half sat'd NaHCO3 (2×10 mL) and water (10 mL). […] 161°-163° C., the IR and ^1 H NMR spectra of which matched that of an authentic sample.
3. Stability of 9-Trimethylsilyl-9-[…] p-Chlorocarbanilate in Acetic Acid: To a solution of 0.37 g of TMS-Fmoc-PCA in 10 mL of CH2 Cl2 was added 0.5 mL (10 eq.) of glacial acetic acid. The mixture was stirred at room temperature. […] The mixture was washed with half sat'd NaHCO3 (2×10 mL) and H2 O (10 mL). […] 124°-126° C., the ^1 H NMR and IR spectra of which matched that of an authentic sample.

[3] = Base deblocking of substituted urethanes (U-PCA) by various amines; details: dichloromethane, room temperature
From the text: 1. General Procedure for Studying the Base Deblocking of the Urethanes Fmoc-PCA, BTS-Fmoc-PCA, DT-Fmoc-PCA, and TMS-Fmoc-PCA: A mixture of urethane (0.05 mmol) in a solution prepared from an equal volume of base (2.5 mmol, 50 eq.) and dichloromethane was stirred at room temperature. The course of the reaction was monitored by TLC with an eluant consisting of Skelly B--ether (3:1).

[4] = Stability of difluorenyl derivatives in trifluoroacetic acid; details: TFA 500 eq.
Procedure: C. Stability of FM-Fmoc-analine in Trifluoroacetic Acid: To a solution of 51.3 mg of FM-Fmoc-analine in 6 mL of CHCl3 was added 4 mL (500 eq.) of trifluoroacetic acid. The mixture was stirred at room temperature and monitored by TLC with an eluant consisting of Skelly B--ether (2:1). No change was noted after two days. The mixture was diluted with 10 mL of chloroform, and washed with H2 O (2×15 mL) and sat'd NaHCO3 (2×15 mL). […] 241°-243° C., the ^1 H NMR and IR spectra of which matched that of an authentic sample.
D. Stability of Bis(9-fluorenyl)methyl Carbanilate Towards Trifluoroacetic Acid: To a solution of 100 mg of α-F-Fmoc-analine in 12 mL of chloroform was added 8 mL (500 eq.) of trifluoroacetic acid. The mixture was stirred at room temperature and monitored by TLC with an eluant consisting of Skelly B--ether (2:1). No change was noted after 24 hours. The mixture was washed with water (2×10 mL), sat'd NaHCO3 (3×10 mL), and water (10 mL). […] 223°-226° C. (dec.), the ^1 H NMR and IR spectra of which matched that of an authentic sample.

[5] = Stability of FM-Fmoc-aniline towards catalytic hydrogenolysis; details: 5% Pd/C, 45 psi hydrogen, 24 hours
Procedure: E. Stability of FM-Fmoc-aniline Towards Catalytic Hydrogenolysis: To a mixture of 100 mg of FM-Fmoc-aniline and 63.9 mg of Fmoc-aniline in 30 mL of freshly distilled THF and 15 mL of 100% EtOH was added 30 mg of 5% palladium on charcoal. The mixture was shaken under hydrogen at a pressure of 45 psi in a Parr apparatus for 24 hours. […] Recrystallization of the latter from ethyl acetate gave 89.1 mg (89.1%) of the pure FM-Fmoc-anilineas white crystals, m.p. 243°-244° C. the ^1 H NMR and IR spectra of which matched that of an authentic sample.

[6] = HPLC monitoring of the deblocking of Nε-(9-xanthenylmethoxycarbonyl)-L-lysine by TBD; details: TBD 20 eq., pyridine and DMF, room temperature
Procedure: B. HPLC Monitoring of the Deblocking of N^ε -(9-Xanthenylmethoxycarbonyl)-L-lysine by TBD: A mixture of […] of H-Lys(Xmoc)-OH and 150 mg (20 eq.) of 1,5,9-triazabicyclo[4,4,0]dec-5-ene (TBD) in 0.3 mL of pyridine and 0.3 mL of DMF was stirred at room temperature. A 20 μL portion of the mixture was neutralized with a solution of 0.3 mL of 5% HCl and 0.3 mL of methanol, filtered, and injected for HPLC analysis which was carried out on a Waters Radial Pak 10-μm C18 reverse phase column (0.8×10 cm) under the following conditions:
Mobile phase: 65% methanol and 35% TFA (0.1% in water)

[7] = Piperidine deblocking of bis(9-fluorenyl)methyl carbanilate; details: piperidine 48.5 eq., anhydrous ether, room temperature
Procedure: B. Piperidine Deblocking of Bis(9-fluorenyl)methyl Carbanilate: To a suspension of 20 mg (0.042 mmol) of αF-Fmoc-analine in 0.2 mL of anhydrous ether was added 0.2 mL (2.02 mmol, 48.5 eq.) of piperidine. The mixture was stirred at room temperature and monitored by TLC with an eluant consisting of Skelly B--CH2 Cl2 (1:1). […] No attempt was made to isolate the individual component of the final reaction mixture.

[8] = CHCl3, room temperature, two days
[9] = chloroform, room temperature, 24 hours

Structure (SMILES): C[Si](C)(C)c1ccc2c(c1)C(COC(=O)Nc1ccc(Cl)cc1)c1cc([Si](C)(C)C)ccc1-2 [BTS-Fmoc-PCA, 2,7-Bis(trimethylsilyl)-9-fluorenylmethyl p-Chlorocarbanilate]
product of protolysis in trifluoroacetic acid [1]: 9-fluorenylmethyl p-chlorocarbanilate
recovered urethane [2]: 95.35%
stability in acetic acid (TLC) [2]: no change
Time for Complete Deblocking ([3]; ethanolamine 50 eq.): 90 min
Time for Complete Scavenging of Dibenzofulvene Analogs ([3]; morpholine 50 eq.): 3.5 hr
Time for Complete Deblocking ([3]; morpholine 50 eq., significant aminodibenzofulvene type adduct formed): 190 min
Time for Complete Scavenging of Dibenzofulvene Analogs ([3]; piperidine 50 eq.): 40 min
Time for Complete Deblocking ([3]; piperidine 50 eq., significant aminodibenzofulvene type adduct formed): < 3 min
Time for Complete Deblocking ([3]; t-butylamine 50 eq.): 270 min

recovered urethane [4, 8]: 97.1%
stability in trifluoroacetic acid (TLC) [4, 8]: No change
recovered urethane [5]: 99.4%
Structure (SMILES): O=C(Nc1ccccc1)OCC1(CC2c3ccccc3-c3ccccc32)c2ccccc2-c2ccccc21 [FM-Fmoc-aniline, 9-(9'-Fluorenylmethyl)-9-fluorenylmethyl Carbanilate]

time after which no starting material was left (HPLC) [6]: ≤ 4.5 h
Structure (SMILES): N[C@@H](CCCCNC(=O)OCC1c2ccccc2Oc2ccccc21)C(=O)O [H-Lys(Xmoc)-OH, N^ε -(9-Xanthenylmethoxycarbonyl)-L-lysine]

recovered urethane [4, 9]: 98.3%
stability in trifluoroacetic acid (TLC) [4, 9]: No change
time for total decomposition of the urethane [7]: ≤ 10 min
Structure (SMILES): O=C(Nc1ccccc1)OC(C1c2ccccc2-c2ccccc21)C1c2ccccc2-c2ccccc21 [α-F-Fmoc-aniline, Bis(9-fluorenyl)methyl Carbanilate]
